Experiments:
Type in all cases: cell-based, human
[1] = tested on: ICAM-4 (LW) phosphorylation; test: 32P labeling, ICAM-4 immunoprecipitation and detection of phosphorylation in SS RBCs
Description: Cells were then washed 4 times. ICAM-4 protein immunoprecipitation, and total and phospho-ICAM-4 detection were performed as previously described in detail.^4 To further confirm that the immunoprecipitates were specific for ICAM-4, anti-ICAM-4 mAb and the negative control immunoglobulin P3 were used to immunoprecipitate ICAM-4 from non-radiolabeled SS RBCs incubated in the presence or absence of epinephrine. Blots were then immunostained with anti-ICAM-4 mAb.

[2] = tested on: SS RBC membrane ghost phosphopeptides; test: Label-free quantitative phosphoproteomic analysis of SS RBC membrane ghosts
Description: Ghosted RBCs were spun at 14,000 rpm for 15 min at 4° C. to pellet membranes. Membrane pellets were washed with 1 mL 50 mM ammonium bicarbonate (pH 8.0) with vortexing and were then spun at 14,000 rpm for 30 min at 4° C. The supernatant was then removed and 500 μL of 50 mM ammonium bicarbonate with μL 0.2% acid-labile surfactant (ALS-1) in 50 mM ammonium bicarbonate (pH 8.0) was added. Samples were subjected to probe sonication three-times for 5 sec with cooling on ice between and insoluble material was cleared by centrifugation at 14,000 rpm for 30 mins at 4° C. Samples were normalized to approximately 2 μg/μl following a micro-Bradford assay (Pierce Bioscience), and were reduced with a final concentration of 10 mM dithiothreitol at 80° C. for 20 min. Samples were then alkylated with a final concentration of 20 mM iodoacetamide at room temperature for 45 min and trypsin was added to a final ratio of 1-to-50 (w/w) enzyme-to-protein and allowed to digest at 37° C. for 18 hr. To remove ALS-1, samples were acidified to pH 2.0 with neat TFA, incubated at 60° C. for 2 hrs and spun at 14,000 rpm to remove hydrolyzed ALS-1. Samples were either subjected directly to LC-MS analysis or subjected to a TiO2 based phosphopeptide enriched protocol.
To enrich for phosphorylated peptides prior to LC-MS analysis, either 1,125 μg and 970 μg of total digested protein from RBC ghosts co-incubated with recombinant active ERK2 experiments and experiments using epinephrine-treated cells, respectively, were brought to near dryness using vacuum centrifugation and then resuspended in 200 μL of 80% acetonitrile, 1% TFA, 50 mg/ml MassPrep Enhancer (pH 2.5) (Waters Corp. Milford, Mass.). Samples were loaded onto an in-house packed TiO2 spin column (Protea Biosciences) with a 562 μg or 485 μg binding capacity for active ERK2 treated or epinephrine treated experiments, respectively. Samples were washed twice with 200 μL 80% acetonitrile, 1% TFA, 50 mg/ml MassPrep Enhancer (pH 2.5) followed by two washes with 200 μL 80% acetonitrile, 1% TFA (pH 2.5). Retained peptides were eluted twice with 100 μL 20% acetonitrile, 5% aqueous ammonia (pH 10.0), acidified to pH 3 with neat formic acid and then brought to dryness using vacuum centrifugation. Prior to LC-MS analysis, each sample was resuspended in 20 μL 2% acetonitrile, 0.1% TFA, 25 mM citric acid (pH 2.5).
Chromatographic separation of phosphopeptide enriched or non-enriched samples was performed on a Waters NanoAquity UPLC equipped with a 1.7 μm BEH130 C1875 μm I.D.×250 mm reversed-phase column. The mobile phase consisted of (A) 0.1% formic acid in water and (B) 0.1% formic acid in acetonitrile. Five μL injections of each sample were trapped for 5 min on a 5 μm Symmetry C18 180 μm I.D.×20 mm column at 20 μl/min in 99.9% A. The analytical column was then switched in-line and the mobile phase was held for 5 min at 5% B before applying a linear elution gradient of 5% B to 40% B or 5% B to 30% B over 90 min at 300 nL/min for ERK2 treated experiments or epinephrine treated experiments, respectively. The analytical column was connected to fused silica PicoTip emitter (New Objective, Cambridge, Mass.) with a 10 μm tip orifice and coupled to the mass spectrometer through an electrospray interface.
MS data from each phosphopeptide enriched sample was acquired on a Thermo LTQ-Orbitrap XL mass spectrometer operating in positive-ion mode with an electrospray voltage of 2.0 kV with real-time lockmass correction on ambiant polycyclodimethylsiloxane (m/z 445.120025) enabled. The instrument was set to acquire a precursor MS scan from m/z 400-2000 with r=60,000 at m/z 400 and a target AGC setting of 1e6 ions. Each sample was analyzed four-times, one of which was used for additional qualitative identifications only and was not included in the quantitative analysis, with product ions above a threshold of 500 counts were acquired for the top 5 most intense ions in the linear ion trap. […]

[3] = tested on: glycophorin A phosphorylation; test: 32P labeling, glycophorin A immunoprecipitation and phosphorylation in SS RBCs
From the text: Glycophorin A phosphorylation and immunoprecipitation. […] Cells were then washed 4 times. […] Blots were immunostained with anti-glycophorin A mAb.

[4] = epinephrine in the presence of SPI
[5] = SS RBCs, epinephrine 30 min vs 1 min
[6] = SS RBCs vs SS RBCs treated with U0126

SMILES | ICAM-4 phosphorylation over sham-treated cells ([1]; epinephrine 1 min in the presence of SPI (FIG. 4F)) | ICAM-4 phosphorylation vs 1 min exposure ([1]; epinephrine 30 min in the presence of SPI) | increase in ICAM-4 phosphorylation over sham-treated SS RBCs [1, 4] | change in phosphorylation of serine 310 within CAP1 [2, 5] | change in phosphorylation of threonine 307 within CAP1 [2, 5] | increase in glycophorin A phosphorylation over sham-treated SS RBCs [3, 4] | effect on combined effect of epinephrine and SPI on ICAM-4 phosphorylation ([1]; SS RBCs preincubated with inhibitor) | change of Ser540/Ser542 doubly phosphorylated peptide within protein 4.1 ([2]; SS RBCs treated with U0126) | unique RBC membrane phosphopeptides significantly down-regulated [2, 6] | unique phosphoproteins carrying the down-regulated phosphopeptides [2, 6] | effect on combined effect of epinephrine and SPI on glycophorin A phosphorylation ([3]; SS RBCs pre-incubated with 10 μM U0126 for 1 h)
CNC[C@H](O)c1ccc(O)c(O)c1 [epinephrine] | 1.84±0.15 fold | significantly diminished | 7.4±1.07 fold | −4.3 fold | −1.4 fold | 2.93±0.35 fold |  |  |  |  | 
N#CC(=C(/N)Sc1ccccc1N)/C(C#N)=C(\N)Sc1ccccc1N [U0126] |  |  |  |  |  |  | significantly decreased | −1.7 fold | 36 | 22 | significantly decreased
